We go through five compounds from patent US20060223790A1, “Modulation of Microglial by Nicotinic Medications” (University of South Florida, priority 2004, published 2006).

One assay deals with APP transgenic mice. As to conditions: cited from earlier work; for Aβ deposition: APP transgenic mice.
The next assay concerns microglia. To be noted: cited from earlier work.
The test system of assay [1] is primary cultured microglial cells. It is filed as cell-based, mouse.
Assay [2] shares this test system. It is filed as cell-based, mouse. The source holds these as a separate data set.
The test system of another assay is p44/42 MAPK. Format: cell-based, mouse.

In the case of `Oc1c(I)cc(Cl)c2cccnc12` [clioquinol], in the assay with APP transgenic mice, the Aβ deposition result is given as “reduced”.
Take `COc1cc(/C=C/C(=O)CC(=O)/C=C/c2ccc(O)c(OC)c2)ccc1O` [curcumin]: the Aβ deposition entry in the assay on APP transgenic mice was “reduced”.
For `CC(C)Cc1ccc(C(C)C(=O)O)cc1` (stereo not shown) [ibuprofen], in the assay with APP transgenic mice, the Aβ deposition result is listed as “reduced”.
For the compound `CN1CCCC1c1cccnc1` (stereo not shown) [nicotine], in the assay on microglia, the “LPS-induced TNF-α release” value is reported as “inhibit” and the “microglial activation induced by bacterial endotoxin (LPS)” value is on record as “reduced”. For the same compound, the “reduction in β-amyloid plaque” value in the assay on APP transgenic mice (mouse, in vivo) is listed as “comparable”. For the same compound, the “HIV-1 gp120/IFN-Υ-induced NO release” value in assay [1] is “slight reduction”. For the same compound, the “HIV-1 gp120/IFN-Υ-induced TNF-α production” value in assay [2] is listed as “slight reduction”.
Regarding α-bungarotoxin, in assay [1], the “effect on galantamine/nicotine inhibition of microglial NO release” value is reported as “significantly attenuates”. Further, the “effect on galantamine/nicotine inhibition of phosphorylation of p44/42 MAPK” value in the assay with p44/42 MAPK is “significantly attenuated”.
